# Measured values from publication PMC6158167 (Nature Communications, 2018).
# Key:
# ShHTL1 = ShHTL1 (Striga hermonthica, UniProt A0A0M4AV81); assay: ITC binding to ShHTL1; conditions: 3 mM KAR1 into 150 μM protein, 20 °C, means ± SD, n = 3, read-out: dissociation constant (KD) of KAR1 to ShHTL1
# Description: Binding analyses of ShHTLs and ShD14 with KAR1. The ITC assays were performed by adding 3 mM KAR1 to 150 μM ShHTL1 (a), ShHTL4 (b), ShHTL7
# ShHTL1 and AtHTL were fitted using the MicroCal origin software with the “one binding site” model.
# AtHTL = target: T1, AtHTL (Arabidopsis thaliana, UniProt Q9SZU7); assay: ITC binding to AtHTL; conditions: 3 mM KAR1 into 150 μM protein, 20 °C
# T1 sequence (Q9SZU7 1-270): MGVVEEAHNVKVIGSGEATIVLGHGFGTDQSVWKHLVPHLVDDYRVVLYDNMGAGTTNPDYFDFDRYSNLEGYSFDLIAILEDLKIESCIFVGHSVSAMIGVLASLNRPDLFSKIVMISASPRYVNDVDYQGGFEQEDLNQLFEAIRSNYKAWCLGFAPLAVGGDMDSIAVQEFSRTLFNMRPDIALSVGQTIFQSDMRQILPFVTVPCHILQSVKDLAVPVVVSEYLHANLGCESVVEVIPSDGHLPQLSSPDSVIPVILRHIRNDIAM
# Description: (§1) The binding assays were performed using a MicroCal iTC200 isothermal titration calorimeter (GE Healthcare). Prior to the ITC experiments, concentrated ShD14, ShHTL1, ShHTL4, and ShHTL7 were exchanged into a buffer consisting of 20 mM HEPES (pH 8.0) and 150 mM NaCl to remove dithiothreitol and were then adjusted to a final concentration of 150 μM. The sample cell was filled with protein solution (204 μL). Nineteen consecutive 2.0-μL aliquots of 3 mM KAR1 (3-methyl-2H-furo [2,3-c] pyran-2-one) were injected into a prepared protein solution at 150 s intervals at 20 °C. The first injection volume was 0.4 μL, and the observed thermal peak was excluded from the data analysis. A negative control was obtained by titrating 3 mM KAR1 into the buffer (20 mM HEPES, pH 8.0, 150 mM NaCl) in the same manner. Data fitting was performed in “one set of sites” mode, and KD values were calculated using Origin software provided by MicroCal.
# (§2) Supplementary Figure 3. Binding analyses of ShHTLs and ShD14 with KAR1. The ITC
# (§3) assays were performed by adding 3 mM KAR1 to 150 μM ShHTL1 (a), ShHTL4 (b), ShHTL7
# (§4) (c), ShD14 (d) and AtHTL (e).
# (§5) ShHTL1 and AtHTL were fitted using the MicroCal origin software with the “one binding site”
# (§6) model. The ITC assays titrating KAR1 into ShHTL1 and AtHTL were repeated three times
# (§7) independently (data not shown).
# Striga = system: Striga; design: method as in doi:10.1016/j.plantsci.2009.06.007, PMID 26228149; conditions: cited from earlier work
# ShHTL7 T190F/C194F = ShHTL7 T190F/C194F (Striga hermonthica, UniProt A0A0M3PNA2, C194F/T190F); assay: ITC binding to ShHTL7 double mutation; conditions: 3 mM KAR1 into 150 μM mutant
# Description: Supplementary Figure 8. Activity measurements of ShHTL7 mutants. (a-b), Binding analyses of the T190F/C194F double mutation (a) and L124F/T190F/C194F triple mutation (b) of ShHTL7 with KAR1 by ITC (shown in black). The ITC assays were performed by adding 3 mM KAR1 to 150 μM ShHTL7 mutants in the same manner as in Supplementary Figure 3. Results of titrating buffer to 150 μM ShHTL7 mutants are shown in red. The upper panel for each […]
# injection (black squares). (c) YLG hydrolytic activity of ShHTL7 and its mutants. As described
# ShHTL4 = assay: ITC binding to ShHTL4; design: species or system Striga hermonthica; conditions: 3 mM KAR1 into 150 μM protein
# Description: as §1, §2, §3, §4, §5, §6, §7
# [1] = system: ShHTL1–ShMAX2 interaction; conditions: Y2H dilution series, 5 μM ligand
# From the text: (§8) Full-length sequences of ShD14, ShHTL1, ShHTL3, ShHTL4, ShHTL7, and AtHTL were cloned into the pGBKT7 vector as bait (Clontech), and the coding regions of ShMAX2 and AtMAX2 were cloned into the pGADT7 vector as prey (Clontech). MAX2 was supposed to be unstable without ASK1. Therefore, AtASK1 was cloned into the N terminus of ShMAX2 and AtMAX2 with a 16-residue linker for co-expression. The bait and prey plasmids were co-transformed into the yeast (Saccharomyces cerevisiae) strain Y2HGold (Clontech) by the lithium acetate-mediated method. The presence of both plasmids was confirmed by growth on SD/-Leu/-Trp (-LT) plates. […] The plates were incubated for 5 days at 30 °C.
# (§9) and AtHTL were detected using an anti-GST antibody, as indicated by the black arrows. (b)
# (§10) 1/10, 1/20, 1/50, 1/100, 1/1000) of transformed yeast cells was plated on control medium (SD/-
# (§11) Leu/-Trp; -LT) and selective medium (SD/-Leu/-Trp/-His/-Ade; -LTHA) in the absence or
# (§12) (1 picture or pasted object on this page, not shown here)
# [2] = system: ShHTL1-AtMAX2 interaction; conditions: Y2H dilution series, 5 μM ligand
# From the text: as §8, §9, §10, §11, §12
# Chain of ShHTL1 (A0A0M4AV81 entry or part of it): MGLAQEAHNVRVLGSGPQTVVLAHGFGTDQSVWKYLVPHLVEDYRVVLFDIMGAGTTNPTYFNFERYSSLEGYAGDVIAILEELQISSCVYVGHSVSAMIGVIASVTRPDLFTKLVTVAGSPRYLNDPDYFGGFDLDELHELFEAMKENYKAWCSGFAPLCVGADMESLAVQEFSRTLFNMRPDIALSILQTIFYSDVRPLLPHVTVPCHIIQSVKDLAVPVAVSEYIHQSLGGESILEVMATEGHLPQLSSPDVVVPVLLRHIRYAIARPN
# Chain of ShHTL7 T190F/C194F (A0A0M3PNA2 whole entry T190F/C194F): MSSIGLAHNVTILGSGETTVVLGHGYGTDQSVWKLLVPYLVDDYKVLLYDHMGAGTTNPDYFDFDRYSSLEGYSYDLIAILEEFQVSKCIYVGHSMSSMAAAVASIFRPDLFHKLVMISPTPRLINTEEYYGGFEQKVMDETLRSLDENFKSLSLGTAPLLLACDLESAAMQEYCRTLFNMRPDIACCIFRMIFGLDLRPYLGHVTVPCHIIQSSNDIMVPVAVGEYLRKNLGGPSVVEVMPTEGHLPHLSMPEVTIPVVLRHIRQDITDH
smiles,measurement,setting,value
"Cc1c2ccocc-2oc1=O [KAR1, 3-methyl-2H-furo [2,3-c] pyran-2-one]",Kd,ShHTL1,77 ± 12 µM
same,Kd,AtHTL,129 ± 17 µM
same,induction of germination of Striga,Striga,fails to induce germination of Striga
same,KAR1 binding by ShHTL7 T190F/C194F,ShHTL7 T190F/C194F,able to bind to KAR1 weakly
same,KAR1 binding ability of ShHTL4,ShHTL4,no significant KAR1 binding ability
same,ligand effect on ShHTL1-ShMAX2 interaction,[1],significant difference between the control and the presence of KAR1 or rac-GR24 was not observed
same,ligand effect on ShHTL1-AtMAX2 interaction,[2],significant difference between the control and the presence of KAR1 or rac-GR24 was not observed
